Experimental data: PubChem BioAssay (NCI)
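Test compounds were applied to cells in 96-well plates for 48 hours at 5 doses. Abbreviation: GI50, concentration required for 50% inhibition of growth. TGI denotes the concentration required for complete inhibition of growth.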

Tests used:
Assay in all cases: NCI-60 cell line screen, 48 h
BT-549 breast = test system: BT-549 breast
NCI-H460 lung = test system: NCI-H460 lung
SN12C renal = test system: SN12C renal
HCC-2998 colon = test system: HCC-2998 colon
UO-31 renal = test system: UO-31 renal
CCRF-CEM leukemia = test system: CCRF-CEM leukemia
OVCAR-3 ovarian = test system: OVCAR-3 ovarian
MDA-MB-435 = test system: MDA-MB-435
HOP-92 NSCLC = test system: HOP-92 NSCLC
SK-MEL-5 melanoma = test system: SK-MEL-5 melanoma
UACC-62 melanoma = test system: UACC-62 melanoma
NCI-H522 lung = test system: NCI-H522 lung
SNB-19 CNS = test system: SNB-19 CNS
HL-60(TB) leukemia = test system: HL-60(TB) leukemia
OVCAR-5 ovarian = test system: OVCAR-5 ovarian
DU-145 prostate = test system: DU-145 prostate
SK-OV-3 ovarian = test system: SK-OV-3 ovarian
T-47D breast = test system: T-47D breast
MALME-3M melanoma = test system: MALME-3M melanoma
OVCAR-8 ovarian = test system: OVCAR-8 ovarian
A498 renal = test system: A498 renal
MDA-MB-231 breast = test system: MDA-MB-231 breast
NCI/ADR-RES ovarian = test system: NCI/ADR-RES ovarian
RPMI-8226 leukemia = test system: RPMI-8226 leukemia
SK-MEL-2 melanoma = test system: SK-MEL-2 melanoma
IGROV1 ovarian = test system: IGROV1 ovarian
K-562 leukemia = test system: K-562 leukemia
HCT-116 colon = test system: HCT-116 colon
UACC-257 melanoma = test system: UACC-257 melanoma

O=C(NNc1nc2cc(F)cc(F)c2n2cccc12)c1ncccn1 was tested. Which GI50 (BT-549 breast) did it give?
The GI50 was 1040 nM.

And the TGI (BT-549 breast)?
The TGI was 17000 nM.

What about the GI50 (NCI-H460 lung) of the same compound?
Its GI50 is 212 nM.

What about the TGI (NCI-H460 lung) of the same compound?
Its TGI is 3900 nM.

What about the GI50 (SN12C renal) of the same compound?
Its GI50 is 1200 nM.

What about the TGI (SN12C renal) of the same compound?
The TGI was over 30000 nM.

And the GI50 (HCC-2998 colon)?
Its GI50 is 863 nM.

And the TGI (HCC-2998 colon)?
The TGI was over 30000 nM.

And the GI50 (UO-31 renal)?
Its GI50 is 116 nM.

What about the TGI (UO-31 renal) of the same compound?
The TGI was 3670 nM.

What about the GI50 (CCRF-CEM leukemia) of the same compound?
The GI50 was 327 nM.

And the TGI (CCRF-CEM leukemia)?
Its TGI is over 30000 nM.

And the GI50 (OVCAR-3 ovarian)?
The GI50 was 730 nM.

And the TGI (OVCAR-3 ovarian)?
The TGI was over 30000 nM.

What about the GI50 (MDA-MB-435) of the same compound?
Its GI50 is 1240 nM.

What about the TGI (MDA-MB-435) of the same compound?
Its TGI is over 30000 nM.

And the GI50 (HOP-92 NSCLC)?
The GI50 was 1240 nM.

What about the TGI (HOP-92 NSCLC) of the same compound?
The TGI was 20700 nM.

And the GI50 (SK-MEL-5 melanoma)?
Its GI50 is 584 nM.

What about the TGI (SK-MEL-5 melanoma) of the same compound?
Its TGI is 2860 nM.

What about the GI50 (UACC-62 melanoma) of the same compound?
The GI50 was 377 nM.

What about the TGI (UACC-62 melanoma) of the same compound?
The TGI was over 9210 nM.

What about the GI50 (NCI-H522 lung) of the same compound?
The GI50 was 1030 nM.

What about the TGI (NCI-H522 lung) of the same compound?
Its TGI is over 17000 nM.

And the GI50 (SNB-19 CNS)?
Its GI50 is 688 nM.

What about the TGI (SNB-19 CNS) of the same compound?
The TGI was over 30000 nM.

What about the GI50 (HL-60(TB) leukemia) of the same compound?
The GI50 was 803 nM.

What about the TGI (HL-60(TB) leukemia) of the same compound?
Its TGI is 5070 nM.

And the GI50 (OVCAR-5 ovarian)?
Its GI50 is 1180 nM.

And the TGI (OVCAR-5 ovarian)?
Its TGI is over 30000 nM.

What about the GI50 (DU-145 prostate) of the same compound?
The GI50 was 751 nM.

And the TGI (DU-145 prostate)?
The TGI was over 30000 nM.

What about the GI50 (SK-OV-3 ovarian) of the same compound?
Its GI50 is 443 nM.

What about the TGI (SK-OV-3 ovarian) of the same compound?
Its TGI is 9810 nM.

What about the GI50 (T-47D breast) of the same compound?
The GI50 was 1060 nM.

And the TGI (T-47D breast)?
Its TGI is 22700 nM.

What about the GI50 (MALME-3M melanoma) of the same compound?
Its GI50 is 1050 nM.

What about the TGI (MALME-3M melanoma) of the same compound?
The TGI was 19600 nM.

What about the GI50 (OVCAR-8 ovarian) of the same compound?
Its GI50 is 509 nM.

And the TGI (OVCAR-8 ovarian)?
Its TGI is over 30000 nM.

And the GI50 (A498 renal)?
Its GI50 is 1200 nM.

And the TGI (A498 renal)?
Its TGI is 5850 nM.

What about the GI50 (MDA-MB-231 breast) of the same compound?
The GI50 was 1220 nM.

What about the TGI (MDA-MB-231 breast) of the same compound?
Its TGI is over 25300 nM.

What about the GI50 (NCI/ADR-RES ovarian) of the same compound?
Its GI50 is 218 nM.

And the TGI (NCI/ADR-RES ovarian)?
Its TGI is 10300 nM.

And the GI50 (RPMI-8226 leukemia)?
Its GI50 is 1180 nM.

And the TGI (RPMI-8226 leukemia)?
The TGI was over 30000 nM.

What about the GI50 (SK-MEL-2 melanoma) of the same compound?
The GI50 was 2950 nM.

And the TGI (SK-MEL-2 melanoma)?
The TGI was 30000 nM.

What about the GI50 (IGROV1 ovarian) of the same compound?
Its GI50 is 420 nM.

And the TGI (IGROV1 ovarian)?
Its TGI is 22400 nM.

What about the GI50 (K-562 leukemia) of the same compound?
Its GI50 is 1000 nM.

And the TGI (K-562 leukemia)?
The TGI was over 30000 nM.

And the GI50 (HCT-116 colon)?
The GI50 was 341 nM.

What about the TGI (HCT-116 colon) of the same compound?
The TGI was over 21100 nM.

And the GI50 (UACC-257 melanoma)?
The GI50 was 1180 nM.

What about the TGI (UACC-257 melanoma) of the same compound?
Its TGI is 15700 nM.
